Results on 17 substances are retold here after patent publication US9526757B2, “Peptides that inhibit the interaction between ASF1 and histones, and use thereof” (COMMISSARIAT A L'ENERGIE ATOMIQUE ET AUX ENERGIES …, priority 2011, dated 2016).

The subject of test [1] is U2OS cells. Briefly: Cell penetration test of FITC-labelled peptides by flow cytometry. The class given is cell-based, human. The note with it: FITC label, 1 μM, 1 hour, FIG. 5. As for the experimental part:
The capacity of the peptide i42V (SEQ ID NO: 47) coupled either to the sequence TAT (peptide TAT-i42V, SEQ ID NO: 58) or to the sequence (RRP)5 (peptide RRP5-i42V, SEQ ID NO 59) was measured using these peptides coupled to an FITC label. The mean fluorescence of the cells was analyzed by flow cytometry (FIG. 5).
U2OS cells were incubated with culture medium supplemented with fluorescent peptide at a final concentration of 1 μM for 1 hour, then washed with PBS buffer and detached by addition of trypsin, washed with PBS buffer, then analyzed by flow cytometry (FACS).

The target in the next test is T1, Asf1 1-156 (Homo sapiens, UniProt Q9Y294).
T1 construct: made in house
T1 sequence (Q9Y294 1-156): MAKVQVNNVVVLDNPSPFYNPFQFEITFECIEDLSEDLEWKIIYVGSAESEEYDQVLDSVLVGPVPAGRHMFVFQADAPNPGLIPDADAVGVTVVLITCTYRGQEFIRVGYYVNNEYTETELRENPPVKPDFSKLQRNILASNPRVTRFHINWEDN
Briefly: Calorimetry (ITC) of the interaction of peptides with Asf1 1-156. The following applies: for binding to Asf1 (in words): control peptide mutated on three key residues; for affinity for Asf1 compared with peptide i5: optimized sequences of i5. Format: binding. As for the experimental part:
FIG. 1: ITC curves of the interaction Asf1 1-156 (30 μM in A, 10 μM in B and C) with peptide i1 (A), i4 (B) and i5 (C). The peptide concentration used for this experiment is 0.5 mM for i1, and 0.16 mM for i4 and i5.
Human Asf1a and b proteins and the conserved N-terminal domain (1-156) of each of the isoforms were cloned into the vector peTM30. The unlabeled and ^15N and ^13C/^15N labeled recombinant proteins were purified according to the protocol of Mousson et al. (2004, Journal of Biomolecular NMR, 29(3): 413-414). The peptides were either produced by chemical synthesis ([…]), or cloned after gene synthesis ([…]) in the vector Gateway pDest 17 (Invitrogen), then purified according to the protocol of Mousson et al. (2005, Proc. Natl. Sci. USA, 102(17): p. 5975-5980).
All calorimetry experiments were carried out in 50 mM Tris buffer pH 7.4 at 5° C., unless otherwise indicated. Peptides were introduced in the syringe at a concentration of […] and Asf1 was added to the cuvette at a concentration of 30 μM or 10 μM. Calorimetry tests were also conducted at 25° C. or in 50 mM Tris buffer, 150 mM NaCl, pH 7.4 to obtain more detailed information on the characteristics of the interactions studied.

Test [2] deals with U2OS cells. Briefly: Toxicity test on U2OS cells transduced with peptides in the presence of pyrene butyrate. Format: cell-based, human. The note with it: 24 hours after transduction. The protocol: To optimize the internalization of the peptide, the transduction was performed in the presence of pyrene butyrate, according to the method proposed by Takeuchi et al. (ACS CHEMICAL BIOLOGY, 2006. 1(5): p. 299-303). […] RRP5-i1 is the peptide of SEQ ID NO: 60. RRP5-i5 is the peptide of SEQ ID NO: 66. This correlation between the affinity of the peptide for Asf1 and the induced cell toxicity was confirmed for another cell type (HeLa cells) and by using another protocol to measure cell survival, the MTT assay (FIG. 10).
To test the phenotypes induced by the peptide, a newly developed protocol for the “Cell Penetrating TAT” was used. The peptides were dissolved in PBS buffer containing […] and incubated with U2OS (or HeLa) cells for 4 minutes. Cells were then washed three times with PBS buffer, then taken up in culture medium containing fetal calf serum. Cell death was analyzed by FACS 24 to 48 hours later by propidium iodide incorporation or by an MTT assay (3-(4,5-dimethylthiazol-2-yl)-2,5-diphenyl tetrazolium bromide). (Mosmann, T. J. Immunol. Methods 65: 55-63, 1983).

The next test addresses T2, Asf1-H3-H4 interaction (Homo sapiens, UniProt Q9Y294).
T2 construct: The human protein GST-Asf1 1-156 was produced; made in house
The test is described as follows: Competition assay on GST column (peptide/histone competition in vitro, Western blot). The class given is binding. The note with it: peptide 0.1 mM and 1 mM, FIG. 3. As for the experimental part: To do this, GST beads linked to Asf1 were incubated with an excess of histones H3-H4, then washed and incubated with increasing concentrations of peptide. The eluted histones were analyzed by Western blot.
The human protein GST-Asf1 1-156 was produced and then incubated with GST beads (glutathione S transferase, Sigma). For each experiment, 40 μg of recombinant Asf1 fixed to agarose beads were incubated with 400 μg of histones. After washing with 50 mM Tris buffer, pH 8, 150 mM NaCl, 1 mM EDTA, 1 mM DTT, 0.5% NP40, the beads were incubated with different concentrations of peptide (0 to 1 mM) dissolved in the same buffer.

Where [3] appears, read: ITC, 50 mM Tris buffer pH 7.4 at 5° C., Asf1 1-156, read-out: Kd.

Entries after “also recorded” stand apart in the source; their conditions may differ. Where two headings read alike, the source gives them in different places. Where no end group is shown, it is not given here.

T2 sequence (Q9Y294 1-156): as above

“GRKKRRQRRRGAMGTITPKEAQLARRIRGAGGVTLNGFG [SEQ ID NO: 58]”: the “penetration into cells (mean fluorescence)” value in the test on U2OS cells [1] is “penetrate more effectively than the penetration sequences alone”.

In the case of “RRP5-i5mut: mutated version of RRP5-i5 carrying the (RRP)5 sequence, does not bind to Asf1; negative control (RRPRRPRRPRRPRRPASTERKWAEAARRARGAGGVTLNGAGGCA)”, the “binding to Asf1 (in words)” value with Asf1 1-156 was “does not bind to Asf1”. Moreover, the “toxicity (in words)” value with U2OS cells [2] is reported as “no toxicity was seen”.

As to “GAMGTITPKEEQLRRRIEGAGASVTLNGFG [SEQ ID NO: 46]”, at Asf1 1-156 (setting [3]), the Kd was determined as 0.42 µM.

With GAMGTIMPKDIQLARRIRG [SEQ ID NO: 70], on Asf1 1-156 (unit inferred, read-out: affinity for Asf1), the Kd turned out to be 8 µM.

Regarding “GAMGTLTPKEAELARRIRGAGASRTLNGFG [SEQ ID NO: 43]”, the Kd at Asf1 1-156 (setting [3]) amounted to 0.35 µM.

Turning to “GAMGTIMPKDIQLARRIRGAGASRTLYGFG [SEQ ID NO: 39]”, the Kd on Asf1 1-156 (setting [3]) is 0.35 µM.

“GAMGTLTPKEAELARRIRGAGGVTLNGFG [SEQ ID NO: 48]”: the Kd on Asf1 1-156 (setting [3]) was found to be 0.06 µM.

As to “ASTERKWAELARRIAGAGGVTLNGFG [SEQ ID NO: 79]”, the “affinity for Asf1 compared with peptide i5” value on Asf1 1-156 was “at least as good as that of peptide i5”.

For the substance “GAMGRVPPAVRKLGNASTERKWAELARRIRGAGGVTLNGFG [SEQ ID NO: 65]”, the Kd on Asf1 1-156 (setting [3]) is 0.06 µM.

With “RRPRRPRRPRRPRRPGAMGTITPKEAQLARRIRGAGGVTLNGFGCA [SEQ ID NO: 50]”, the Kd at Asf1 1-156 (setting [3]) is 0.42 µM.

Consider “GAMGTRTPKERRLARRIRGAGGRTLNGFG [SEQ ID NO: 56]”, for which, at Asf1 1-156 (setting [3]), the Kd amounted to 0.03 µM.

As for “GAMGTITPKEAQLARRIRGAGGVTLNGFG [SEQ ID NO: 47]”, the Kd on Asf1 1-156 (setting [3]) is 0.35 µM.

Consider “ASTERKWAELARRIRGAGGRTLNGFG [SEQ ID NO: 77]”, for which the “affinity for Asf1 compared with peptide i5” value on Asf1 1-156 is reported as “at least as good as that of peptide i5”.

In the case of “GAMGTLTPKEAELARRIRGAGGRTLNGFG [SEQ ID NO: 42]”, the Kd on Asf1 1-156 (setting [3]) came out at 0.18 µM.

In the case of “RRPRRPRRPRRPRRPGAMGTITPKEAQLARRIRGAGGVTLNGFG [SEQ ID NO: 59]”, in the test on U2OS cells [1], the “penetration into cells (mean fluorescence)” value is listed as “penetrate more effectively than the penetration sequences alone”.

In the case of “i5mut: control peptide, 90% identity with peptide i5, mutated to alanine on three key residues, no longer binds to Asf1 (ASTERKWAEAARRARGAGGVTLNGAG) [reference compound]”, the “histones bound to or detached from GST-Asf1 beads” value in the test with Asf1-H3-H4 interaction is reported as “the histones remain bound to Asf1”. Moreover, the “binding to Asf1 (in words)” value with Asf1 1-156 is reported as “no longer binds to Asf1; also recorded: does not bind to Asf1”.

As to “GAMGLTAAEHAKRSTLTPKEAQLARRIRGAGGVTLNGFG [SEQ ID NO: 52]”, at Asf1 1-156 (setting [3]), the Kd stood at 0.03 µM.
